Ten compounds from ChEMBL document CHEMBL1158077, “Microbial transformation and butyrylcholinesterase inhibitory activity of (-)-caryophyllene oxide and its derivatives” (J Nat Prod, 2006) can be followed below.

Cholinesterase, sequence (P81908 whole entry): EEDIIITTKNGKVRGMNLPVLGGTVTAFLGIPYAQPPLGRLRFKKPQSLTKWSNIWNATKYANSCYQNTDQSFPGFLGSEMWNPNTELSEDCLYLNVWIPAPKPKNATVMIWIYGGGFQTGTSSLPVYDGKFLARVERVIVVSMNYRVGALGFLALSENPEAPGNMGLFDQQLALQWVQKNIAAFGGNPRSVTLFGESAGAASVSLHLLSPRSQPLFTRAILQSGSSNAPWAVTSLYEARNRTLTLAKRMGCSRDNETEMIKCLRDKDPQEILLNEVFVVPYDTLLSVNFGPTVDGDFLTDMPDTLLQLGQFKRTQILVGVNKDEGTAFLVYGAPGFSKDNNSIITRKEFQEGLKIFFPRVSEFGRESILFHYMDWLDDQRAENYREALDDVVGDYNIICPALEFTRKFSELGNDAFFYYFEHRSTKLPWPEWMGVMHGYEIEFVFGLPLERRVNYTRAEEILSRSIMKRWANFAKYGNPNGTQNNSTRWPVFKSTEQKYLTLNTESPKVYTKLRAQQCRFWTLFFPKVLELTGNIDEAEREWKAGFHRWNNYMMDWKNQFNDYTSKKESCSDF

This test has as its target Cholinesterase (Equus caballus, UniProt P81908). Description: Inhibition of horse serum BuChE by Ellman's method. (Ellman's reagent forms a yellow product with free thiols.)
Take `C=C1CC[C@@H]2O[C@]2(C)CC[C@@H]2[C@@H]1CC2(C)C`: the IC50 – broadly, the concentration at which inhibition is half-maximal – is 208 µM.
With `C=C1CC[C@H]2O[C@]2(C)CC[C@@H]2[C@@H]1C[C@]2(C)CO` the figure was 10.9 µM; with `CC1(C)C[C@@H]2C(=O)CC[C@H]3O[C@]3(C)C[C@H](O)[C@H]21`, 459 µM.
With `CC1(C)C[C@H]2[C@H]1CC[C@]1(C)[C@H](O)CC[C@@]2(O)[C@H]1O` the figure was 23.6 µM; with `CC1(C)C[C@H](O)[C@]23CC[C@@H](O)[C@](C)(CC[C@@H]12)C3`, 456 µM; with `C=C1CC[C@H]2O[C@]2(C)CC[C@@H]2[C@@H]1C[C@@]2(C)CO`, 189 µM.
Regarding `CC1(C)C[C@@H]2[C@@H](CO)CC[C@H]3O[C@]3(C)CC[C@H]21`, the IC50 was determined as 26.4 µM.
With `C=C1CC[C@@H](O)[C@](C)(O)CC[C@@H]2[C@@H]1CC2(C)C` the figure was 44 µM.
As for `CC1(C)C[C@H](O)[C@]23CC[C@@H](O)[C@](CO)(CC[C@@H]12)C3`, the IC50 was found to be 43.6 µM.
The same measure for `CC1(C)C[C@@H]2[C@@H](CO)CC[C@H]3O[C@]3(C)[C@H](O)C[C@H]21`: 155 µM.
